Results published in US9247759B2, “Identification of human T2R receptors that respond to bitter compounds that elicit the bitter taste in compositions, and the use thereof in assays to identify compounds that inhibit (block) bitter taste in compositions and use thereof” (SENOMYX, INC., priority 2007, dated 2016).
pIC50: −log10 of the molar value. Read-outs that look alike come from different tables or passages of the source.

How the values were obtained:
hT2R8 = hT2R8 (Homo sapiens (Human), UniProt Q9NYW2); test: hT2R8 antagonist high-throughput FLIPR assay, stable cell line with G16g44, agonist andrographolide; format: cell-based
Chain of hT2R8 (Q9NYW2 whole entry): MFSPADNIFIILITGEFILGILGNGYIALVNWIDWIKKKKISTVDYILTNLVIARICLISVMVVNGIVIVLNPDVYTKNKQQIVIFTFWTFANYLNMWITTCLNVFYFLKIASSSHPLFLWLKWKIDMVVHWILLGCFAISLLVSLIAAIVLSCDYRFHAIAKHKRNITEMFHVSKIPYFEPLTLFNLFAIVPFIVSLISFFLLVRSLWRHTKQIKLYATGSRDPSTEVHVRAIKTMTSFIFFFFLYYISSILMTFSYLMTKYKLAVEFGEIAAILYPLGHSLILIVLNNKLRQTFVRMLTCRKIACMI
Outline: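 HEK293 cells stably co-expressing hT2R8 and chimeric G16g44, read on FLIPR. Test compounds added together with andrographolide (200 μM), which drives the receptor to 70–80% of maximal activity; antagonism seen as reduced agonist response.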

[1] = system: bitter taste of instant coffee; test: 2-alternative forced choice taste test, instant coffee with hT2R8 antagonists; format: in vivo, human; details: antagonist 5 μM
Method: Taste tests were performed with hT2R8 antagonists in instant coffee using a 2-alternative forced choice method with a taste panel of 15-20 panelists. Coffee samples with the antagonists were given to the taste panelists together with the same sample without antagonists, the panelists were asked to identify the bitterer sample within the pair.

[2] = read-out: IC50 on hT2R8 bitter receptor
[3] = table after Example 10-97, read-out: hT2R8 IC50

Compound | melting point | pIC50 (hT2R8; [2]) | pIC50 (hT2R8; [3]) | Selected as bitterer: With antagonists [1] | Selected as bitterer: Without antagonists [1]
Cc1noc(C)c1Cn1cc(-n2c(=O)n(C)n(Cc3ccccc3)c2=O)cn1 [Example 10-65, 1-Benzyl-4-(1-((3,5-dimethylisoxazol-4-yl)methyl)-1H-pyrazol-4-yl)-2-methyl-1,2,4-triazolidine-3,5-dione] | 124 to 126 °C | 7.70 | 7.72 | – | –
Cc1noc(C)c1Cn1cc(N2C(=O)CN(CCc3ccccc3)C2=O)cn1 [Example 10-78, 3-(1-((3,5-dimethylisoxazol-4-yl)methyl)-1H-pyrazol-4-yl)-1-phenethylimidazolidine-2,4-dione] | 95 to 96 °C | 6.85 | 6.86 | – | –
COc1cccc(CN2C(=O)N(c3cnn(Cc4c(C)noc4C)c3)C(=O)C2(C)C)c1 [Example 12-32, 3-(1-((3,5-dimethylisoxazol-4-yl)methyl)-1H-pyrazol-4-yl)-1-(3-methoxybenzyl)-5,5-dimethylimidazolidine-2,4-dione] | 107 to 108 °C | 7.10 | – | – | –
Cc1noc(C)c1Cn1cc(NC(=O)c2ccccn2)cn1 [Example 4-1, N-(1-((3,5-dimethylisoxazol-4-yl)methyl)-1H-pyrazol-4-yl)picolinamide] | 135 to 137 °C | 6.24 | – | – | –
Cc1noc(C)c1Cn1cc(N2C(=O)NC(Cc3ccccc3)C2=O)cn1 (stereo not drawn) [Example 10-2, 5-benzyl-3-(1-((3,5-dimethylisoxazol-4-yl)methyl)-1H-pyrazol-4-yl)imidazolidine-2,4-dione] | 169 to 171 °C | 6.74 | – | – | –
Cc1noc(C)c1Cn1cc(N2C(=O)N(Cc3cccc(O)c3)C(C)(C)C2=O)cn1 [Example 12-1, 3-(1-((3,5-dimethylisoxazol-4-yl)methyl)-1H-pyrazol-4-yl)-1-(3-hydroxybenzyl)-5,5-dimethylimidazolidine-2,4-dione] | – | 7.30 | – | 2 | 14
